In this experiment the target is recombinant human SAE enzyme (Homo sapiens (Human), UniProt Q9UBT2). Put plainly: SAE HTRF enzyme assay. Type of experiment: biochemical. As to conditions: for inhibition at 0.111 µM: read-out: Percent Inhibition; for pIC50: class symbols A/B/C; for IC50: SAE inhibition, class symbols, legend in nM. The method in brief:
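HTRF read-out using Eu-cryptate anti-Flag and allophycocyanin anti-GST antibodies, added with EDTA stop buffer and read after 2 h at 24 °C. The preceding reaction ran 105 min at 24 °C: 0.11 nM recombinant SAE, 0.5 μM ATP, Sumo-Flag, Ubc9-GST, pH 7.5. Values given as single-concentration inhibition or IC50.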
For orientation: In TR-FRET formats the signal depends on donor and acceptor labels being close together.

Setting [1] is: SAE inhibition at compound concentration 0.111 μM.

Structures are written as SMILES. pIC50: −log10 of the molar value. Like-named read-outs stand apart in the source and are kept apart here.

Chain of recombinant human SAE enzyme (Q9UBT2 whole entry): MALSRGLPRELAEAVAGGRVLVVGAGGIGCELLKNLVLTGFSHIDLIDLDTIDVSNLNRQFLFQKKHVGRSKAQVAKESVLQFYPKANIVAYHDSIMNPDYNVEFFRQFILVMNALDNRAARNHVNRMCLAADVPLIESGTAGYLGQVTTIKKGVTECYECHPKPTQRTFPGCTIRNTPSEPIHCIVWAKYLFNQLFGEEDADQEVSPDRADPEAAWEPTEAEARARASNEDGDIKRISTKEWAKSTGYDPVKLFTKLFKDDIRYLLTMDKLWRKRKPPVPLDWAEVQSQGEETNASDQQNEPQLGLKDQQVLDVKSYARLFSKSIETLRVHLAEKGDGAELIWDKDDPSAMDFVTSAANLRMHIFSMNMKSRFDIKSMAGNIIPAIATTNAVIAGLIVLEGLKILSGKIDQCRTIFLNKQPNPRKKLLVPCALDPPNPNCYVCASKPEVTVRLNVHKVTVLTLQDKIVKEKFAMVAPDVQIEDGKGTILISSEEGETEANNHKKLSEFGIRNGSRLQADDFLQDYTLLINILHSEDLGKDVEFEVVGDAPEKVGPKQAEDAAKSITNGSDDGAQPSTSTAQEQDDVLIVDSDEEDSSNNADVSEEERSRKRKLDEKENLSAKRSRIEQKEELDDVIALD
Chain of recombinant human SAE enzyme (Q9UBE0 whole entry partner): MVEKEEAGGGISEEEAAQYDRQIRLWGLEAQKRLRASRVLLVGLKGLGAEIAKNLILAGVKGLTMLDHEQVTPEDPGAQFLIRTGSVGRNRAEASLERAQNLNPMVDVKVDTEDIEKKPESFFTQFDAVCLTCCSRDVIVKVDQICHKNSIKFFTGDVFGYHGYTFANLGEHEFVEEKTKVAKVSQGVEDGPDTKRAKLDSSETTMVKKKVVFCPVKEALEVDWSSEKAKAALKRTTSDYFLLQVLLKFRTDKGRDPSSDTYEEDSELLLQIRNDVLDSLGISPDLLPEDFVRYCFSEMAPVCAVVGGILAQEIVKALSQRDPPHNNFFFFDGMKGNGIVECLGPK

As to `NS(=O)(=O)OC[C@H]1C[C@@H](Nc2ncncc2C(=O)c2cc(CN3CCCC(F)(F)C3)cs2)C[C@@H]1O` [I-224, [(1R,2S,4R)-4-{[5-({4-[(3,3-difluoropiperidin-1-yl)methyl]-2-thienyl}carbonyl)pyrimidin-4-yl]amino}-2-hydroxycyclopentyl]methyl sulfamate], the negative logarithm of the IC50 (pIC50) was 6.00 to 7.00. Under “Concentration 0.111 μM”, the inhibition at 0.111 µM is 31%.

`NS(=O)(=O)OC[C@H]1C[C@@H](Nc2ncncc2C(=O)c2cc(CN3CCC(F)(F)C3)cs2)C[C@@H]1O` [I-228, [(1R,2S,4R)-4-{[5-({4-[(3,3-Difluoropyrrolidin-1-yl)methyl]-2-thienyl}carbonyl)pyrimidin-4-yl]amino}-2-hydroxycyclopentyl]methyl sulfamate]: the pIC50 was 6.00 to 7.00. For the same molecule, the inhibition at 0.111 µM (Concentration 0.111 μM) is 29%.

As for `CC(=O)c1csc(C(=O)c2cncnc2N[C@@H]2C[C@H](COS(N)(=O)=O)[C@@H](O)C2)c1` [I-229, [(1R,2S,4R)-4-{(5-[(4-Acetyl-2-thienyl)carbonyl]pyrimidin-4-yl}amino)-2-hydroxycyclopentyl]methyl sulfamate], the negative-log IC50 (pIC50) was 6.00 to 7.00. Moreover, for the setting “Concentration 0.111 μM”, the inhibition at 0.111 µM is 25%.

In the case of `NS(=O)(=O)OC[C@H]1C[C@@H](Nc2ncncc2C(=O)c2cc(CO)cs2)C[C@@H]1O` [I-230, {(1R,2S,4R)-2-hydroxy-4-[(5-{[4-(hydroxymethyl)-2-thienyl]carbonyl}pyrimidin-4-yl)amino]cyclopentyl}methyl sulfamate], the pIC50 is 6.00 to 7.00. For the same molecule, the inhibition at 0.111 µM (Concentration 0.111 μM) came out at 26%.

For the molecule `NS(=O)(=O)OC[C@H]1C[C@@H](Nc2ncncc2C(=O)c2cc(Cn3ccnc3)cs2)C[C@@H]1O` [I-231, {(1R,2S,4R)-2-hydroxy-4-[(5-{[4-(1H-imidazol-1-ylmethyl)-2-thienyl]carbonyl}pyrimidin-4-yl)amino]cyclopentyl}methyl sulfamate], the pIC50 was 6.00 to 7.00. Besides, for the setting “Concentration 0.111 μM”, the inhibition at 0.111 µM was 28%.

Regarding `Cc1cc(Cc2cccc(Cl)c2)sc1C(=O)c1cncnc1N[C@@H]1C[C@H](COS(N)(=O)=O)[C@@H](O)C1` [I-233, {(1R,2S,4R)-4-[(5-{[5-(3-Chlorobenzyl)-3-methyl-2-thienyl]carbonyl}pyrimidin-4-yl)amino]-2-hydroxycyclopentyl}methyl sulfamate], the negative logarithm of the IC50 (pIC50) was 6.00 to 7.00. Further, where the note is “Concentration 0.111 μM”, the inhibition at 0.111 µM is 22%.

On to `CC(=O)c1coc(C(=O)c2cncnc2N[C@@H]2C[C@H](COS(N)(=O)=O)[C@@H](O)C2)c1` [I-234, [(1R,2S,4R)-4-{[5-(4-Acetyl-2-furoyl)pyrimidin-4-yl]amino}-2-hydroxycyclopentyl]methyl sulfamate], for which the pIC50 is 6.00 to 7.00. Besides, the inhibition at 0.111 µM (Concentration 0.111 μM) was found to be 20%.

As for `CC(C)(O)c1ccc(C(=O)c2cncnc2N[C@@H]2C[C@H](COS(N)(=O)=O)[C@@H](O)C2)s1` [I-235, {(1R,2S,4R)-2-hydroxy-4-[(5-{[5-(2-hydroxypropan-2-yl)-2-thienyl]carbonyl}pyrimidin-4-yl)amino]cyclopentyl}methyl sulfamate], the pIC50 is 6.00 to 7.00. The inhibition at 0.111 µM (Concentration 0.111 μM) was determined as 22%.

`NS(=O)(=O)OC[C@H]1C[C@@H](Nc2nc(Cl)ncc2C(=O)c2ccc(-c3ccccc3)o2)[C@H](O)[C@@H]1O` [I-236, [(1R,2R,3S,4R)-4-{[2-chloro-5-(5-phenyl-2-furoyl)pyrimidin-4-yl]amino}-2,3-dihydroxycyclopentyl]methyl sulfamate]: the pIC50 is 6.00 to 7.00. Besides, the inhibition at 0.111 µM (Concentration 0.111 μM) is 19%.

With `Cc1ccc(Cc2csc(C(=O)c3cncnc3N[C@@H]3C[C@H](COS(N)(=O)=O)[C@@H](O)C3)c2)o1` [I-237, [(1R,2S,4R)-2-Hydroxy-4-{[5-({4-[(5-methyl-2-furyl)methyl]-2-thienyl}carbonyl)pyrimidin-4-yl]amino}cyclopentyl]methyl sulfamate], the pIC50 is 6.00 to 7.00. For the same molecule, where the note is “Concentration 0.111 μM”, the inhibition at 0.111 µM is 25%.

`NS(=O)(=O)OC[C@H]1C[C@@H](Nc2ncncc2C(=O)c2ccc(S(=O)(=O)c3ccccc3)o2)C[C@@H]1O` [I-239, [(1R,2S,4R)-2-Hydroxy-4-(5-[5-(phenylsulfonyl)-2-furoyl]pyrimidin-4-yl}amino)cyclopentyl]methyl sulfamate]: the negative logarithm of the IC50 (pIC50) was 6.00 to 7.00. For the same molecule, the “Percent Inhibition” value (Concentration 0.111 μM) is given as 14.

As to `CC(C)(O)c1csc(C(=O)c2cncnc2N[C@@H]2C[C@H](COS(N)(=O)=O)[C@@H](O)C2)c1` [I-240, {(1R,2S,4R)-2-Hydroxy-4-[(5-{[4-(2-hydroxypropan-2-yl)-2-thienyl]carbonyl}pyrimidin-4-yl)amino]cyclopentyl}methyl sulfamate], the negative logarithm of the IC50 (pIC50) was 6.00 to 7.00. Further, the inhibition at 0.111 µM (Concentration 0.111 μM) came out at 19%.

Take `NS(=O)(=O)OC[C@H]1C[C@@H](Nc2ncncc2C(=O)c2cc(CN3CCN(c4ccccc4)CC3)cs2)C[C@@H]1O` [I-241, [(1R,2S,4R)-2-hydroxy-4-{[5-({4-[(4-phenylpiperazin-1-yl)methyl]-2-thienyl}carbonyl)pyrimidin-4-yl]amino}cyclopentyl]methyl sulfamate]: the pIC50 is 6.00 to 7.00. For the setting “Concentration 0.111 μM”, the inhibition at 0.111 µM stood at 18%.

Consider `CC(=O)c1cc(C(=O)c2cncnc2N[C@@H]2C[C@H](COS(N)(=O)=O)[C@@H](O)C2)sc1Cl` [I-242, [(1R,2S,4R)-4-{(5-[(4-Acetyl-5-chloro-2-thienyl)carbonyl]pyrimidin-4-yl}amino)-2-hydroxycyclopentyl]methyl sulfamate], for which the pIC50 is 6.00 to 7.00. Also, the inhibition at 0.111 µM (Concentration 0.111 μM) was 25%.

On to `NS(=O)(=O)OC[C@H]1C[C@@H](Nc2ncncc2C(=O)c2cc(Cn3cnc(Br)c3)cs2)C[C@@H]1O` [I-243, [(1R,2S,4R)-4-{[5-({4-[(4-bromo-1H-imidazol-1-yl)methyl]-2-thienyl}carbonyl)pyrimidin-4-yl]amino}-2-hydroxycyclopentyl]methyl sulfamate], for which the pIC50 is 6.00 to 7.00. Under “Concentration 0.111 μM”, the inhibition at 0.111 µM was determined as 19%.

Take `Cc1sc(C(=O)c2cncnc2N[C@@H]2C[C@H](COS(N)(=O)=O)[C@@H](O)C2)cc1[C@H]1OCCc2ccccc21` [I-256a, [(1R,2S,4R)-4-{[5-({4-[(1S)-3,4-dihydro-1H-isochromen-1-yl]-5-methyl-2-thienyl}carbonyl)pyrimidin-4-yl]amino}-2-hydroxycyclopentyl]methyl sulfamate]: the pIC50 is above 8.00. The inhibition at 0.111 µM (Concentration 0.111 μM) came out at 94%.

For the molecule `Cc1sc(C(=O)c2cncnc2N[C@@H]2C[C@H](COS(N)(=O)=O)[C@@H](O)C2)cc1[C@@H]1OCCc2ccccc21` [I-256b, [(1R,2S,4R)-4-{[5-({4-[(1R)-3,4-Dihydro-1H-isochromen-1-yl]-5-methyl-2-thienyl}carbonyl)pyrimidin-4-yl]amino}-2-hydroxycyclopentyl]methyl sulfamate], the pIC50 was above 8.00. Besides, the inhibition at 0.111 µM (Concentration 0.111 μM) amounted to 99%.

As to `Cc1sc(C(=O)c2cncnc2N[C@@H]2C[C@H](COS(N)(=O)=O)[C@@H](O)C2)cc1[C@H]1OCCc2ccc(Cl)cc21` [I-257a, [(1R,2S,4R)-4-{[5-({4-[(1S)-7-chloro-3,4-dihydro-1H-isochromen-1-yl]-5-methyl-2-thienyl}carbonyl)pyrimidin-4-yl]amino}-2-hydroxycyclopentyl]methyl sulfamate], the pIC50 is 7.00 to 8.00. In addition, the inhibition at 0.111 µM (Concentration 0.111 μM) is 74%.

Take `Cc1sc(C(=O)c2cncnc2N[C@@H]2C[C@H](COS(N)(=O)=O)[C@@H](O)C2)cc1[C@@H]1OCCc2ccc(Cl)cc21` [I-257b, [(1R,2S,4R)-4-{[5-({4-[(1R)-7-Chloro-3,4-dihydro-1H-isochromen-1-yl]-5-methyl-2-thienyl}carbonyl)pyrimidin-4-yl]amino}-2-hydroxycyclopentyl]methyl sulfamate]: the pIC50 is above 8.00. Moreover, the inhibition at 0.111 µM (Concentration 0.111 μM) is 99%.

Consider `Cc1sc(C(=O)c2cncnc2N[C@@H]2C[C@H](COS(N)(=O)=O)[C@@H](O)C2)cc1[C@@H]1NCCc2ccc(Cl)cc21` [I-263a, [(1R,2S,4R)-4-[[5-[4-[(1R)-7-chloro-1,2,3,4-tetrahydroisoquinolin-1-yl]-5-methyl-thiophene-2-carbonyl]pyrimidin-4-yl]amino]-2-hydroxy-cyclopentyl]methyl sulfamate], for which the negative-log IC50 (pIC50) was above 8.00. Moreover, the inhibition at 0.111 µM (Concentration 0.111 μM) worked out at 101%.

On to `Cc1sc(C(=O)c2cncnc2N[C@@H]2C[C@H](COS(N)(=O)=O)[C@@H](O)C2)cc1[C@H]1NCCc2ccc(Cl)cc21` [I-263b, [(1R,2S,4R)-4-{[5-({4-[(1S)-7-chloro-1,2,3,4-tetrahydroisoquinolin-1-yl]-5-methyl-2-thienyl}carbonyl)pyrimidin-4-yl]amino}-2-hydroxycyclopentyl]methyl sulfamate], for which the pIC50 is 7.00 to 8.00. Moreover, the inhibition at 0.111 µM (Concentration 0.111 μM) was determined as 89%.

As for `Cc1sc(C(=O)c2cncnc2N[C@@H]2C[C@H](COS(N)(=O)=O)[C@@H](O)C2)cc1[C@@H]1c2cc(Cl)ccc2CCN1C` [I-306, [(1R,2S,4R)-4-[[5-[4-[(1R)-7-Chloro-2-methyl-3,4-dihydro-1H-isoquinolin-1-yl]-5-methyl-thiophene-2-carbonyl]pyrimidin-4-yl]amino]-2-hydroxy-cyclopentyl]methyl sulfamate and 2-carbonyl]pyrimidin-4-yl]amino]-2-hydroxy-cyclopentyl]methyl sulfamate], the IC50 is below 10 nM. Further, the “Percent Inhibition” value under setting [1] worked out at 98%.

In the case of `Cc1sc(C(=O)c2cncnc2N[C@@H]2C[C@H](COS(N)(=O)=O)[C@@H](OC(=O)CN)C2)cc1[C@@H]1OCCc2ccc(Cl)cc21` [I-330, (1S,2R,4R)-4-{[5-({4-[(1R)-7-chloro-3,4-dihydro-1H-isochromen-1-yl]-5-methyl-2-thienyl}carbonyl)pyrimidin-4-yl]amino}-2-[(sulfamoyloxy)methyl]cyclopentyl aminoacetate], the half-maximal inhibitory concentration (IC50) was 100 to 1000 nM. The inhibition at 0.111 µM under setting [1] worked out at 34%.

For orientation: inhibition means the relative decrease from the control value, in per cent. In general, pIC50 refers to the IC50 on a negative log10 scale, so that one unit is a factor of ten. The IC50 is the concentration that inhibits the measured activity by half.
